Source: the supplement of paper PMC9663587

Tests used:
[1] = compound: CC(=O)O[C@H]1C(=O)[C@@]2(C)[C@H]([C@H](OC(=O)c3ccccc3)[C@]3(O)C[C@H](OC(=O)[C@H](O)[C@@H](NC(=O)c4ccccc4)c4ccccc4)C(C)=C1C3(C)C)[C@]1(OC(C)=O)CO[C@@H]1C[C@@H]2O [Paclitaxel]
[2] = compound: CC(C)NC[C@@H](C(=O)N1CCN(c2ncnc3c2[C@H](C)C[C@H]3O)CC1)c1ccc(Cl)cc1 [Ipatasertib/GDC0068]
[3] = compound: CCNC(=O)c1noc(-c2cc(C(C)C)c(O)cc2O)c1-c1ccc(CN2CCOCC2)cc1 [Luminespib/NVP-AUY922]
[4] = compound: CN(C)C/C=C/C(=O)Nc1ccc(O[C@@H]2CCC[C@@H](Nc3ncc(Cl)c(-c4c[nH]c5ccccc45)n3)C2)cc1 [BSJ-01-175]
[5] = compound: CN(C)CC[C@H](CSc1ccccc1)Nc1ccc(S(=O)(=O)NC(=O)c2ccc(N3CCN(Cc4ccccc4-c4ccc(Cl)cc4)CC3)cc2)cc1[N+](=O)[O-] [ABT-737]
[6] = compound: T1, CN1CC[C@H](c2c(O)cc(O)c3c(=O)cc(-c4ccccc4Cl)oc23)[C@H](O)C1 [Flavopiridol]
[7] = compound: COc1cccc2c1C(=O)c1c(O)c3c(c(O)c1C2=O)C[C@@](O)(C(=O)CO)C[C@@H]3O[C@H]1C[C@H](N)[C@H](O)[C@H](C)O1 [Doxorubicin]
[8] = compound: Cc1nc(-c2cn3c(n2)-c2ccc(-c4cnn(C(C)(C)C(N)=O)c4)cc2OCC3)n(C(C)C)n1 [Taselisib/GDC0032]
[9] = compound: O=C(c1cc(Cc2n[nH]c(=O)c3ccccc23)ccc1F)N1CCN(C(=O)C2CC2)CC1 [Olaparib/AZD2281]
[10] = compound: C=CC(=O)Nc1ccc(C(=O)Nc2[nH]nc3c2CN(C(=O)N[C@H](CN(C)C)c2ccccc2)C3(C)C)cc1 [YKL-5-124]; test: GR value, 72 h; higher = faster growth (1 = untreated, <0 = killing);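 note: breast cancer and non-malignant breast epithelial lines, nine half-log doses, viable cells counted by Hoechst and LIVE/DEAD dye imaging versus time-zero plates and DMSO controls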
[11] = compound: CC(=O)c1c(C)c2cnc(Nc3ccc(N4CCN(CCOCCOCCOCCNC(=O)COc5cccc6c5C(=O)N(C5CCC(=O)NC5=O)C6=O)CC4)cn3)nc2n(C2CCCC2)c1=O [BSJ-03-123]; test: as above
[12] = compound: CC(=O)c1c(C)c2cnc(Nc3ccc(N4CCNCC4)cn3)nc2n(C2CCCC2)c1=O; test: as above
[13] = compound: CCN1CCN(Cc2ccc(Nc3ncc(F)c(-c4cc(F)c5nc(C)n(C(C)C)c5c4)n3)nc2)CC1; test: as above
[14] = compound: CCc1cnn2c(NCc3ccc[n+]([O-])c3)cc(N3CCCC[C@H]3CCO)nc12; test: as above
[15] = compound: CN(C)C(=O)c1cc2cnc(Nc3ccc(N4CCNCC4)cn3)nc2n1C1CCCC1 [LEE011/Ribociclib]; test: as above
[16] = compound: CN(C)C/C=C/C(=O)Nc1ccc(C(=O)N2CCC[C@@H](Nc3ncc(Cl)c(-c4c[nH]c5ccccc45)n3)C2)cc1 [THZ531]; test: as above
[17] = compound: T1, Flavopiridol; test: as above
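Throughout, for GR50, 72 h: breast cancer and non-malignant breast epithelial cell lines, Deep Dye Drop or Dye Drop imaging, nine half-log doses, GR normalized to time-zero plates and DMSO-only controls.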

Cell Line: UACC812
- GR50, 72 h [1]: 0.00042 µM
- GR50, 72 h [2]: 1.02 µM
- GR50, 72 h [3]: 0.00518 µM
- GR50, 72 h [4]: 0.332 µM
- GR50, 72 h [5]: 3.73 µM
- GR50, 72 h [6]: 0.0813 µM
- GR50, 72 h [7]: 0.00203 µM
- GR50, 72 h [8]: 0.0622 µM
- GR50, 72 h [9]: 8.69 µM
- GR value ([10]; 0.001 µM): 0.609 GR
- GR value ([10]; 0.003162 µM): 0.318 GR
- GR value ([10]; 0.01 µM): 0.142 GR
- GR value ([10]; 0.03162 µM): -0.122 GR
- GR value ([10]; 0.1 µM): -0.106 GR
- GR value ([10]; 0.3162 µM): -0.151 GR
- GR value ([10]; 1 µM): 0.0505 GR
- GR value ([10]; 3.162 µM): -0.246 GR
- GR value ([10]; 10 µM): -0.423 GR
- GR value ([11]; 0.001 µM): 0.833 GR
- GR value ([11]; 0.003162 µM): 0.862 GR
- GR value ([11]; 0.01 µM): 0.699 GR
- GR value ([11]; 0.03162 µM): 0.711 GR
- GR value ([11]; 0.1 µM): 0.74 GR
- GR value ([11]; 0.3162 µM): 0.887 GR
- GR value ([11]; 1 µM): 0.48 GR
- GR value ([11]; 3.162 µM): 0.408 GR
- GR value ([11]; 10 µM): -0.328 GR
- GR value ([12]; 0.0003162 µM): 1.11 GR
- GR value ([12]; 0.001 µM): 0.781 GR
- GR value ([12]; 0.003162 µM): 0.839 GR
- GR value ([12]; 0.01 µM): 0.637 GR
- GR value ([12]; 0.03162 µM): 0.409 GR
- GR value ([12]; 0.1 µM): 0.173 GR
- GR value ([12]; 0.3162 µM): 0.0192 GR
- GR value ([12]; 1 µM): -0.127 GR
- GR value ([12]; 3.162 µM): -0.162 GR
- GR value ([13]; 0.001 µM): 0.849 GR
- GR value ([13]; 0.003162 µM): 0.562 GR
- GR value ([13]; 0.01 µM): 0.349 GR
- GR value ([13]; 0.03162 µM): -0.073 GR
- GR value ([13]; 0.1 µM): -0.212 GR
- GR value ([13]; 0.3162 µM): -0.252 GR
- GR value ([13]; 1 µM): -0.319 GR
- GR value ([13]; 3.162 µM): -0.407 GR
- GR value ([13]; 10 µM): -0.565 GR
- GR value ([14]; 0.0001 µM): 1.17 GR
- GR value ([14]; 0.0003162 µM): 1.22 GR
- GR value ([14]; 0.001 µM): 1.63 GR
- GR value ([14]; 0.003162 µM): 1.63 GR
- GR value ([14]; 0.01 µM): 1.28 GR
- GR value ([14]; 0.03162 µM): -0.347 GR
- GR value ([14]; 0.1 µM): -0.932 GR
- GR value ([14]; 0.3162 µM): -0.948 GR
- GR value ([14]; 1 µM): -0.949 GR
- GR value ([15]; 0.001 µM): 0.753 GR
- GR value ([15]; 0.003162 µM): 0.55 GR
- GR value ([15]; 0.01 µM): 0.569 GR
- GR value ([15]; 0.03162 µM): 0.333 GR
- GR value ([15]; 0.1 µM): 0.309 GR
- GR value ([15]; 0.3162 µM): 0.218 GR
- GR value ([15]; 1 µM): 0.148 GR
- GR value ([15]; 3.162 µM): 0.171 GR
- GR value ([15]; 10 µM): 0.0704 GR
- GR value ([16]; 0.0001 µM): 0.819 GR
- GR value ([16]; 0.0003162 µM): 1.04 GR
- GR value ([16]; 0.001 µM): 0.807 GR
- GR value ([16]; 0.003162 µM): 0.754 GR
- GR value ([16]; 0.01 µM): 0.851 GR
- GR value ([16]; 0.03162 µM): 0.958 GR
- GR value ([16]; 0.1 µM): 0.942 GR
- GR value ([16]; 0.3162 µM): 1.17 GR
- GR value ([16]; 1 µM): 0.547 GR
- GR value ([17]; 0.0001 µM): 0.797 GR
- GR value ([17]; 0.0003162 µM): 1.15 GR
- GR value ([17]; 0.001 µM): 0.734 GR
- GR value ([17]; 0.003162 µM): 0.914 GR
- GR value ([17]; 0.01 µM): 0.878 GR
- GR value ([17]; 0.03162 µM): 0.785 GR
- GR value ([17]; 0.1 µM): 0.457 GR
- GR value ([17]; 0.3162 µM): -0.332 GR
- GR value ([17]; 1 µM): -0.812 GR
